According to the NIST ThermoML archive (doi:10.1021/je0496950):
Where “and” joins values, the source holds several entries; their conditions need not be identical. Identical values can stand only once.

What was measured:
[1] = 101 kPa, Liquid
[2] = mn = molality of the nth substance listed, in mol/kg; conditions: 101 kPa, Liquid; for speed of sound: Pulse-echo method

CC#N [acetonitrile]
[1]
Conditions | mass density
288.13 K | 787.307 kg/m3 and 787.308 kg/m3 and 787.312 kg/m3
288.15 K | 787.308 kg/m3
293.15 K | 781.933 kg/m3 [middle of 4 runs]
298.15 K | 776.532 kg/m3 [middle of 4 runs]
303.15 K | 771.106 kg/m3 [middle of 4 runs]
308.15 K | 765.645 kg/m3 and 765.664 kg/m3 and 765.649 kg/m3
313.15 K | 760.158 kg/m3 [middle of 4 runs]
323.15 K | 749.07 kg/m3 [middle of 4 runs]

[Mn+2].[O-][Cl+3]([O-])([O-])[O-].[O-][Cl+3]([O-])([O-])[O-] [manganese (II) perchlorate] + CC#N
[2]
Conditions | mass density, 288.15 K [kg/m3] | mass density, 293.15 K [kg/m3] | mass density, 298.15 K [kg/m3] | mass density, 303.15 K [kg/m3] | mass density, 308.15 K [kg/m3] | mass density, 313.15 K [kg/m3] | mass density, 323.15 K [kg/m3] | speed of sound, 298.15 K [m/s]
m1 = 0.07666 | – | – | – | – | – | – | – | 1282.8
m1 = 0.08738 | – | – | – | – | – | – | – | 1283.5
m1 = 0.1308 | 812.076 | 806.744 | 801.389 | 796.009 | 790.599 | 785.164 | 774.198 | 1286
m1 = 0.1732 | 820.267 | 814.947 | 809.604 | 804.238 | 798.846 | 793.424 | 782.485 | 1288.4
m1 = 0.216 | 828.628 | 823.32 | 817.989 | 812.633 | 807.252 | 801.843 | 790.933 | 1290.8
m1 = 0.257 | 836.778 | 831.471 | 826.148 | 820.803 | 815.431 | 810.032 | 799.145 | 1293
m1 = 0.298 | 845.062 | 839.769 | 834.455 | 829.123 | 823.764 | 818.379 | 807.522 | 1295.3
m1 = 0.3364 | 852.972 | 847.683 | 842.377 | 837.051 | 831.7 | 826.326 | 815.497 | 1297.9
m1 = 0.3745 | 860.854 | 855.574 | 850.277 | 844.96 | 839.624 | 834.26 | 823.454 | 1300.3
m1 = 0.4122 | 868.75 | 863.479 | 858.191 | 852.884 | 847.554 | 842.203 | 831.418 | 1302.7

[Ni+2].[O-][Cl+3]([O-])([O-])[O-].[O-][Cl+3]([O-])([O-])[O-] [nickel perchlorate] + CC#N
[2]
Conditions | mass density, 288.13 K [kg/m3] | mass density, 293.15 K [kg/m3] | mass density, 298.15 K [kg/m3] | mass density, 303.15 K [kg/m3] | mass density, 308.15 K [kg/m3] | mass density, 313.15 K [kg/m3] | mass density, 323.15 K [kg/m3] | speed of sound, 298.15 K [m/s]
m1 = 0.0492 | 797.088 | 791.73 | 786.35 | 780.945 | 775.512 | 770.049 | 759.023 | –
m1 = 0.04923 | – | – | – | – | – | – | – | 1281.8
m1 = 0.08198 | – | – | – | – | – | – | – | 1284
m1 = 0.082 | 803.621 | 798.268 | 792.896 | 787.511 | 782.087 | 776.641 | 765.646 | –
m1 = 0.1087 | 809.018 | 803.673 | 798.312 | 792.927 | 787.516 | 782.077 | 771.11 | 1285.8
m1 = 0.135 | 814.36 | 809.021 | 803.671 | 798.291 | 792.889 | 787.46 | 776.511 | 1287.5
m1 = 0.1611 | 819.735 | 814.406 | 809.058 | 803.686 | 798.299 | 792.88 | 781.957 | 1289.4
m1 = 0.1844 | 824.54 | 819.217 | 813.878 | 808.519 | 803.134 | 797.731 | 786.838 | 1290.9
m1 = 0.2114 | 830.147 | 824.83 | 819.495 | 814.141 | 808.766 | 803.366 | 792.486 | 1292.7
m1 = 0.2353 | 835.248 | 829.938 | 824.608 | 819.261 | 813.893 | 808.502 | 797.637 | 1294.1
m1 = 0.2607 | 840.618 | 835.309 | 829.987 | 824.647 | 819.287 | 813.905 | 803.067 | 1295.8

[O-][Cl+3]([O-])([O-])[O-].[O-][Cl+3]([O-])([O-])[O-].[Zn+2] [zinc perchlorate] + CC#N
[2]
Conditions | mass density, 288.13 K [kg/m3] | mass density, 293.15 K [kg/m3] | mass density, 298.15 K [kg/m3] | mass density, 303.15 K [kg/m3] | mass density, 308.15 K [kg/m3] | mass density, 313.15 K [kg/m3] | mass density, 323.15 K [kg/m3] | speed of sound, 298.15 K [m/s]
m1 = 0.05169 | 797.728 | 792.369 | 786.992 | 781.587 | 776.154 | 770.69 | 759.656 | 1280.2
m1 = 0.09336 | 806.167 | 800.821 | 795.456 | 790.063 | 784.645 | 779.192 | 768.19 | 1281.9
m1 = 0.1233 | 812.307 | 806.971 | 801.611 | 796.227 | 790.815 | 785.374 | 774.39 | 1283.1
m1 = 0.1524 | 818.329 | 812.997 | 807.644 | 802.268 | 796.864 | 791.433 | 780.466 | 1284.2
m1 = 0.1817 | 824.45 | 819.125 | 813.78 | 808.412 | 803.019 | 797.595 | 786.657 | 1285.4
m1 = 0.2106 | 830.536 | 825.218 | 819.877 | 814.514 | 809.128 | 803.712 | 792.788 | 1286.8
m1 = 0.2379 | 836.415 | 831.101 | 825.768 | 820.412 | 815.033 | 809.624 | 798.715 | 1287.9
m1 = 0.2668 | 842.682 | 837.373 | 832.046 | 826.696 | 821.325 | 815.925 | 805.037 | 1289
m1 = 0.2944 | 848.641 | 843.338 | 838.017 | 832.675 | 827.308 | 821.916 | 811.045 | 1290.3
